Laboratory results taken from patent publication US4875922A, “Pyrimidine derivatives” (Imperial Chemical Industries PLC, priority 1986, dated 1989).
Read-outs that look alike come from different tables or passages of the source.

Experiments:
Apples [1] = assay: Intermediate Retardant Test, apples, foliar spray compared with root drench; format: in vivo, Apples (Red Delicious); conditions: 672 h, read-out: Percentage Reduction in Height of Apples (Compared to formulation blank)
From the text: (§1) Three species are involved in this test RICE, SPRING-BARLEY and APPLES. The variety and growth stages at spray are outlined in Table V. Compounds were applied at 500 ppm and 2000 ppm respectively (0.5 kg and 2 kg/ha^-1 at a field volume of 1000 l/ha^-1) as an overall spray except in the case of certain tests on APPLES. This gives a foliar and root component in the test, i.e., this test will detect the activity of both root and foliar acting compounds. The intermediate retardant test on APPLES of which the results are given in Table IX was different, in that a foliar (only) spray at 2000 ppm was compared with a root drench, also at 2000 ppm. The rice was grown in 4" `paddy` pots, i.e., the roots and bottom of the stems are immersed in water under conditions corresponding to those in paddy fields. Spring barley and apples were grown in 4" pots. The plants were assessed for height to top-most ligule at approximately 28 days after treatment for spring barley and rice and for height to apex at approximately 28 days after the treatment for apples. In each case the result for the 500 ppm and 2000 ppm test for each compound is compared to the height of the formulation blank in that test, presented as a percentage reduction in height compared to the formulation blank.
(§2) The prior art compound was compared with compounds of the present invention in side-by-side comparisons using the Intermediate Retardant Test described in Example 62, and the results are given in Tables X to XII where `A` is the prior art compound, 2-methyl-1-isopropyl-1-(pyrimidin-5-yl)-propan-1-ol).

Rice [2] = assay: Whole plant screen for plant growth regulator activity, rice (RC); format: in vivo, Rice (Ishikari); conditions: 4000 ppm (4 kg/ha), visual score after 2-6 weeks; for T = Tillering or side shooting: * = decrease in tillering
Method in brief: (§3)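 Foliar spray, 4000 ppm (4 kg/ha, 1000 l/ha), tracksprayer. Glasshouse, 16 h light; MZ/RC 25/22° C., WW/BR 16/13° C. day/night. Visual morphological scoring at 2-6 wk vs formulation blank.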

Wheat = assay: Whole plant screen for plant growth regulator activity, wheat (WW); format: in vivo, Wheat (Timmo); conditions: WW, 4000 ppm (4 kg/ha), visual score after 2-6 weeks; for T = Tillering or side shooting: * = decrease in tillering
Method in brief: as §3

Barley [3] = assay: Whole plant screen for plant growth regulator activity, barley (BR); format: in vivo, Barley (Atem); conditions: BR, 4000 ppm (4 kg/ha), visual score after 2-6 weeks; for T = Tillering or side shooting: * = decrease in tillering
Method in brief: as §3

Apple [4] = assay: Whole plant screen for plant growth regulator activity, apple (AP); format: in vivo, Apple (Red Delicious); conditions: 4000 ppm (4 kg/ha), visual score after 2-6 weeks
Method in brief: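 Compounds sprayed at 4000 ppm (4 kg/ha in 1000 l/ha) by tracksprayer at a defined leaf stage. Plants then grown in glasshouse at 25° C. day/22° C. night (wheat and barley 16° C. day/13° C. night), 16 hour photoperiod. Morphology visually assessed after 2-6 weeks against formulation blanks.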

Rice [5] = assay: Intermediate Retardant Test, rice; format: in vivo, Rice (Ishikari); conditions: Oryza sativa, 672 h, read-out: Percentage Reduction in Height of Rice (Compared to formulation blank)
From the text: as §1, §2

Maize = assay: Whole plant screen for plant growth regulator activity, maize (MZ); format: in vivo, Maize (Earliking); conditions: 4000 ppm (4 kg/ha), visual score after 2-6 weeks
Method: Compounds 1 to 3 in Table 1 were tested for plant growth regulator activity against five species for various growth effects relevant to plant growth regulation.
The plant species used in this screen are presented in Table II with the leaf stage at which they were sprayed. Each chemical was applied at 4000 ppm (4 kg/ha in a 1000 l/ha field volume) using a tracksprayer and a SS8004E (Teejet) nozzle.
After spray the plants were grown in a glasshouse with 25° C. day/22° C. night temperatures and supplementary lighting was supplied when necessary (from mercury vapour lamps), to provide a 16 hour photoperiod. The exception to this were the temperate cereals, wheat and barley which were grown in 16° C. day/13° C. night temperatures.
After 2-6 weeks in the glasshouse, depending on the time of year, the plants were visually assessed for morphological characteristics. Formulation blanks were used as controls to assess the plants. […]

Tomato = assay: Whole plant screen for plant growth regulator activity, tomato (TO); format: in vivo, Tomato (Ailsa Craig); conditions: 4000 ppm (4 kg/ha), visual score after 2-6 weeks
Method in brief: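 Plant growth regulation scored visually 2–6 weeks post-spray, relative to formulation-blank controls, with growth at 25/22 °C day/night under 16 h light. Treatment: 4000 ppm (4 kg/ha, 1000 l/ha volume) track-sprayed onto Ailsa Craig tomato at the 2–2½ leaf stage, grown singly in 3-inch peat pots.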

Spring Barley = assay: Intermediate Retardant Test, spring barley; format: in vivo, Spring Barley (Atem/kym); conditions: Hordeum vulgare, 672 h, read-out: Percentage Reduction in Height of Spring Barley (Compared to formulation blank)
From the text: as §1, §2

Apples [6] = assay: Intermediate Retardant Test, apples, overall spray; format: in vivo, Apples (Red Delicious); conditions: approximately 28 days, Table VIII
From the text: as §1

Apple [7] = assay: Modified Intermediate Retardant Test, apples; format: in vivo, Apple (Red Delicious); conditions: 2000 g/ha, overall spray, height to apex 21 days after treatment
From the text: (§4) The general Intermediate Retardant Test described in Example 62 was modified by the addition of Sunflowers (SR) and the variety and growth stages at spray are outlined in Table XIII. Apart from the changes indicated, growing conditions for barley, rice and apples were as in Example 62 and growing conditions for Sunflower were as for apples. Test compounds were applied to barley, rice and apples as whole plant (overall) sprays at a rate of 2000 g/ha. Test compounds were applied to sunflowers separately as a foliar only spray at a rate of 2000 g/ha and as a root drench at a rate of 2000 g/ha.
(§5) Barley and rice were assessed for height to topmost ligule 21 days after treatment; apples were assessed for height to apex at 21 days after treatment; and sunflowers were assessed for height to apex at 14 days after treatment. The results are expressed as percentage reduction in height compared with the formulation blank in Table XIV.

Barley [8] = assay: Modified Intermediate Retardant Test, barley; format: in vivo, Barley (Atem); conditions: 2000 g/ha, overall spray, height to topmost ligule 21 days after treatment
From the text: as §4, §5

Sunflower = assay: Modified Intermediate Retardant Test, sunflower; format: in vivo; conditions: 2000 g/ha, height to apex 14 days after treatment
From the text: as §4, §5

Rice [9] = assay: Modified Intermediate Retardant Test, rice; format: in vivo, Rice (Ishikari); conditions: 2000 g/ha, overall spray, height to topmost ligule 21 days after treatment
From the text: as §4, §5

[10] = overall spray, approximately 28 days, Table VI
[11] = overall spray, approximately 28 days, Table VII
[12] = 2000 ppm (Foliar), side-by-side comparison with prior art compound, Table XII
[13] = 2000 ppm (Root), side-by-side comparison with prior art compound, Table XII
[14] = side-by-side comparison with prior art compound, Table X
[15] = side-by-side comparison with prior art compound, Table XI

## CCCC#CC(O)(c1cncnc1)C(C)(C)C (stereo not drawn) [Compound 14, 2,2-Dimethyl-1-(pent-1-yne)-1-(pyrimidin-5yl)propan-1ol]
Apples [1]; 2000 ppm (Foliar), approximately 28 days, Table IX
  percent reduction in plant height at 2000 ppm: 23%
Apples [1]; soil, 2000 pmm (Root), root drench, approximately 28 days, Table IX
  percent reduction in plant height at 2000 µg/mL: 58.5%
Rice [2]
  G = Greening effect: 2 (31-60%)
  I = Interligular or internodal length reduction: 2 (31-60%)
  R = Retardation: 3 (61-100%)
Wheat
  G = Greening effect: 2 (31-60%)
  I = Interligular or internodal length reduction: 3 (61-100%)
  R = Retardation: 3 (61-100%)
  T = Tillering or side shooting: 3 (61-100%)
Barley [3]
  G = Greening effect: 2 (31-60%)
  I = Interligular or internodal length reduction: 3 (61-100%)
  R = Retardation: 3 (61-100%)
  T = Tillering or side shooting: 3 (61-100%)
Apple [4]
  G = Greening effect: 3 (61-100%)
  I = Interligular or internodal length reduction: 3 (61-100%)
  R = Retardation: 3 (61-100%)
Apple [4]; * = decrease in tillering
  T = Tillering or side shooting: 1 (10-30%)
Rice [5]; [10]
  Percent reduction in rice height vs formulation blank at 500 ppm: 63%
  Percent reduction in rice height vs formulation blank at 2000 ppm: 76%
Maize
  A = Apical damage: 1 (10-30%)
  G = Greening effect: 2 (31-60%)
  I = Interligular or internodal length reduction: 3 (61-100%)
  R = Retardation: 2 (31-60%)
Tomato
  G = Greening effect: 2 (31-60%)
  I = Interligular or internodal length reduction: 2 (31-60%)
  R = Retardation: 3 (61-100%)
Spring Barley; [11]
  percent reduction in plant height at 500 ppm: 51%
  percent reduction in plant height at 2000 ppm: 68%

## CCCC#CC(O)(c1cncnc1)C(C)C (stereo not drawn) [Compound 2, 2-methyl-1-(pent-1-yne)-1-(pyrimidin-5-yl)-propan-1-ol]
Apples [1]; [12]
  percent reduction in plant height at 2000 ppm: 41.8%
Apples [1]; [13]
  percent reduction in plant height at 2000 ppm: 64.4%
Rice [2]
  G = Greening effect: 2 (31-60%)
  I = Interligular or internodal length reduction: 3 (61-100%)
  R = Retardation: 3 (61-100%)
  T = Tillering or side shooting: 3 (61-100%)
Wheat
  G = Greening effect: 2 (31-60%)
  I = Interligular or internodal length reduction: 3 (61-100%)
  R = Retardation: 2 (31-60%)
  T = Tillering or side shooting: 2 (31-60%)
Barley [3]
  G = Greening effect: 1 (10-30%)
  I = Interligular or internodal length reduction: 3 (61-100%)
  R = Retardation: 3 (61-100%)
  T = Tillering or side shooting: 3 (61-100%)
Apple [4]
  G = Greening effect: 1 (10-30%)
  I = Interligular or internodal length reduction: 2 (31-60%)
  R = Retardation: 3 (61-100%)
Apples [6]; 500 ppm
  Percentage Reduction in Height of Apples (Compared to formulation blank): 10.5%
Apples [6]; 2000 ppm
  Percentage Reduction in Height of Apples (Compared to formulation blank): 52.1%
Rice [5]; [10]
  Percent reduction in rice height vs formulation blank at 500 ppm: 18%
  Percent reduction in rice height vs formulation blank at 2000 ppm: 46%
Rice [5]; [14]
  Percent reduction in rice height vs formulation blank at 500 ppm: 27%
  Percent reduction in rice height vs formulation blank at 2000 ppm: 69%
Maize
  I = Interligular or internodal length reduction: 1 (10-30%)
  R = Retardation: 2 (31-60%)
Spring Barley; [11]
  percent reduction in plant height at 500 ppm: 1%
  percent reduction in plant height at 2000 ppm: 20%
Spring Barley; [15]
  percent reduction in plant height at 500 ppm: 25%
  percent reduction in plant height at 2000 ppm: 59%

## CCCCCC#CC(O)(c1cncnc1)C(C)(C)C (stereo not drawn) [Compound 32]
Apple [7]
  […] IN HEIGHT, AP: 30%
Wheat
  G = Greening effect: 1 (10-30%)
  I = Interligular or internodal length reduction: 3 (61-100%)
  R = Retardation: 2 (31-60%)
Barley [3]
  G = Greening effect: 2 (31-60%)
  I = Interligular or internodal length reduction: 3 (61-100%)
  R = Retardation: 3 (61-100%)
  T = Tillering or side shooting: 1 (10-30%)
Barley [8]
  […] IN HEIGHT, BR: 17%
Sunflower; foliar only spray
  […] IN HEIGHT, SR (Foliar): 13%
Sunflower; root drench
  […] IN HEIGHT, SR (Root): 37%
Tomato
  G = Greening effect: 2 (31-60%)
  I = Interligular or internodal length reduction: 1 (10-30%)
  R = Retardation: 2 (31-60%)
Rice [9]
  […] IN HEIGHT, RC: 46%

## CCCCCC(O)(c1cncnc1)C(C)C (stereo not drawn) [Compound 3, 2-methyl-1-pentyl-1-(pyrimidin-5-yl)-propan-1-ol]
Apples [1]; [12]
  percent reduction in plant height at 2000 ppm: 14.2%
Apples [1]; [13]
  percent reduction in plant height at 2000 ppm: 62.7%
Rice [2]
  G = Greening effect: 2 (31-60%)
  I = Interligular or internodal length reduction: 2 (31-60%)
  R = Retardation: 3 (61-100%)
  T = Tillering or side shooting: 1 (10-30%)
Wheat
  G = Greening effect: 1 (10-30%)
  I = Interligular or internodal length reduction: 3 (61-100%)
  R = Retardation: 3 (61-100%)
  T = Tillering or side shooting: 2 (31-60%)
Barley [3]
  G = Greening effect: 2 (31-60%)
  I = Interligular or internodal length reduction: 3 (61-100%)
  R = Retardation: 3 (61-100%)
  T = Tillering or side shooting: 3 (61-100%)
Apple [4]
  G = Greening effect: 1 (10-30%)
  I = Interligular or internodal length reduction: 2 (31-60%)
  R = Retardation: 3 (61-100%)
Apples [6]; 2000 ppm
  Percentage Reduction in Height of Apples (Compared to formulation blank): 34.1%
Rice [5]; [10]
  Percent reduction in rice height vs formulation blank at 500 ppm: 17%
  Percent reduction in rice height vs formulation blank at 2000 ppm: 47%
Rice [5]; [14]
  Percent reduction in rice height vs formulation blank at 500 ppm: 17%
Maize
  A = Apical damage: 1 (10-30%)
Spring Barley; [15]
  percent reduction in plant height at 500 ppm: 0%
Spring Barley; [11]
  percent reduction in plant height at 2000 ppm: 11%
